In experiment [1] the test system is Saccharomyces. Kind of experiment: growth of winemaking yeasts on selective medium with cycloheximide. It is filed as cell-based. Particulars: in the concentration used by the inventors. From the text:
(§1) The procedure requires no sterile laboratory conditions and only little attention is to be paid to ensure that the right sample is placed on the surface of the culture medium. The culture medium contains components easily available. In addition to components used for growth, the medium contains antibiotics inhibiting the growth of yeasts, e.g.—other culture media similar to selective Brettanomyces—cycloheximide as well. This antibiotic is used for the identification of different species in yeast diagnostics.
(§2) In the following examples, unless indicated otherwise, the following concentrations and compositions were applied. Composition of medium that was suitable for growing yeast cells was the following: 1% glucose, 0.67% “yeast nitrogen base”, 2% agar, which was made selectively by using 5 μg/ml cycloheximide as an antibiotics for blocking the growth of Saccharomyces strains. Azure-II-eosinate was used in a 30 μg/ml concentration.

For experiment [2], the system named is species causing the degradation of wine. The experiment is described as follows: growth of wine-degrading yeasts on selective medium with cycloheximide. It is filed as cell-based. Particulars: in the concentration used by the inventors.
Description: as §1, §2

As to `C[C@@H]1C[C@@H]([C@H](O)CC2CC(=O)NC(=O)C2)C(=O)[C@@H](C)C1` [cycloheximide], the “growth inhibition of winemaking yeasts” value in experiment [1] is “prevents the growth of most yeasts playing a role in wine-making”. Further, in experiment [2], the “tolerance by wine-degrading yeast species” value is given as “still tolerated”.

The values are drawn from patent publication US9845487B2, “Selective chromogenic medium” (SZEGEDI TUDOMÁNYEGYETEM, priority 2013, dated 2017).
